# Measured values: ChEMBL document CHEMBL4840344, “Discovery of 1,8-naphthalidine derivatives as potent anti-hepatic fibrosis agents via repressing PI3K/AKT/Smad and JAK2/STAT3 pathways” (Bioorg Med Chem, 2021)
# Active and inactive are the calls of the source. The rule behind the calls is not given here.
# Key:
# [1] = Cytotoxicity against human LX2 cells assessed as cell death incubated for 24 hrs by MTT assay; type: cell-based, LX-2
# [2] = tested on: COL1A1 promoter; assay: Inhibition of COL1A1 promotor activity in human LX2 cells at 50 uM incubated for 24 hrs by luciferase reporter gene assay; type: cell-based
# [3] = tested on: COL1A1 promoter; assay: Inhibition of COL1A1 promotor activity in human LX2 cells at 20 uM incubated for 24 hrs by luciferase reporter gene assay; type: cell-based
# [4] = Anti-fibrogenic activity in human LX2 cells assessed as inhibition of TGFbeta1-induced COL1A1 mRNA expression at 10 uM incubated for 24 hrs by RT-PCR analysis; type: functional; conditions: LX-2
Compound,CC50 at 24 h [1] [µM],inhibition [2],inhibition [3],inhibition at 10 µM [4] [%]
CN(C)c1ccc2c(=O)c(C(=O)Nc3cc(F)cc(F)c3)cn(-c3ccc(OCCCCCCC[N+]4(C)CCCC4)cc3F)c2n1,< 20,inactive,inactive,–
CN(C)c1ccc2c(=O)c(C(=O)Nc3cc(F)cc(F)c3)cn(-c3ccc(OCCCCCCC[n+]4ccccc4)cc3F)c2n1,< 20,inactive,15.4%,–
CN(C)c1ccc2c(=O)c(C(=O)Nc3cc(F)cc(F)c3)cn(-c3ccc(OCCCCCCC[N+](C)(C)C4CCCCC4)c(Cl)c3)c2n1,> 100,86.2%,34.8%,30.2
CN(C)c1ccc2c(=O)c(C(=O)Nc3cc(F)cc(F)c3)cn(-c3ccc(OCCCCCCC[N+]45CCN(CC4)CC5)cc3Cl)c2n1,76.9,80%,40.1%,–
CC[N+]1(CCCCCCCOc2ccc(-n3cc(C(=O)Nc4cc(F)cc(F)c4)c(=O)c4ccc(N(C)C)nc43)c(C)c2)CCCCC1,< 20,inactive,inactive,–
CC[N+]1(CCCCCCCOc2ccc(-n3cc(C(=O)Nc4cc(F)cc(F)c4)c(=O)c4ccc(N(C)C)nc43)c(Cl)c2)CCCCC1,< 20,inactive,inactive,–
Cc1cc(OCCCCCCC[N+]2(C)CCCC2)ccc1-n1cc(C(=O)Nc2cc(F)cc(F)c2)c(=O)c2ccc(N(C)C)nc21,< 20,inactive,inactive,–
CN(C)c1ccc2c(=O)c(C(=O)Nc3cc(F)cc(F)c3)cn(-c3ccc(OCCCCCCC[N+]4(C)CCCCC4)cc3Cl)c2n1,< 20,inactive,inactive,–
Cc1ccc(-n2cc(C(=O)Nc3cc(F)cc(F)c3)c(=O)c3ccc(N(C)C)nc32)cc1OCCCCCCC[N+]12CCN(CC1)CC2,–,9.71%,5.07%,–
Cc1cc(-n2cc(C(=O)Nc3cc(F)cc(F)c3)c(=O)c3ccc(N(C)C)nc32)ccc1OCCCCCCC[n+]1ccccc1,–,55%,inactive,–
Cc1cc(OCCCCCCC[N+]23CCN(CC2)CC3)ccc1-n1cc(C(=O)Nc2cc(F)cc(F)c2)c(=O)c2ccc(N(C)C)nc21,< 20,inactive,inactive,–
CN(C)c1ccc2c(=O)c(C(=O)Nc3cc(F)cc(F)c3)cn(-c3ccc(OCCCCCCC[N+]4(C)CCCCC4)cc3F)c2n1,< 20,inactive,inactive,–
CN(C)c1ccc2c(=O)c(C(=O)Nc3cc(F)cc(F)c3)cn(-c3ccc(Cl)c(OCCCCCCC[N+]4(C)CCCCC4)c3)c2n1,72.6,90.5%,57.3%,–
CC[N+]1(CCCCCCCOc2cc(-n3cc(C(=O)Nc4cc(F)cc(F)c4)c(=O)c4ccc(N(C)C)nc43)ccc2Cl)CCCC1,61.3,96.4%,46%,–
Cc1ccc(-n2cc(C(=O)Nc3cc(F)cc(F)c3)c(=O)c3ccc(N(C)C)nc32)cc1OCCCCCCC[N+]1(C)CCN(C)CC1,–,25%,10.3%,–
Cc1cc(OCCCCCCC[N+](C)(C)C2CCCCC2)ccc1-n1cc(C(=O)Nc2cc(F)cc(F)c2)c(=O)c2ccc(N(C)C)nc21,–,inactive,inactive,–
Cc1cc(-n2cc(C(=O)Nc3cc(F)cc(F)c3)c(=O)c3ccc(N(C)C)nc32)ccc1OCCCCCCC[N+]1(C)CCCC1,–,35.9%,26.1%,–
CN(C)c1ccc2c(=O)c(C(=O)Nc3cc(F)cc(F)c3)cn(-c3ccc(Cl)c(OCCCCCCC[n+]4ccccc4)c3)c2n1,105,77.8%,inactive,53.6
CN1CC[N+](C)(CCCCCCCOc2ccc(-n3cc(C(=O)Nc4cc(F)cc(F)c4)c(=O)c4ccc(N(C)C)nc43)c(Cl)c2)CC1,< 20,inactive,inactive,–
Cc1cc(OCCCCCCC[N+]2(C)CCCCC2)cc(-n2cc(C(=O)Nc3cc(F)cc(F)c3)c(=O)c3ccc(N(C)C)nc32)c1,99.4,79.7%,46.8%,23.1

Compound,CC50 at 24 h [1] [µM],inhibition [2],inhibition [3],inhibition at 10 µM [4] [%]
CC[N+]1(CCCCCCCOc2ccc(-n3cc(C(=O)Nc4cc(F)cc(F)c4)c(=O)c4ccc(N(C)C)nc43)cc2C)CCCC1,> 100,82.5%,44.6%,48.5
CN(C)c1ccc2c(=O)c(C(=O)Nc3cc(F)cc(F)c3)cn(-c3ccc(OCCCCCCC[N+]4(C)CCCC4)cc3Cl)c2n1,< 20,inactive,inactive,–
O=C(O[C@@H]1Cc2c(O)cc(O)cc2O[C@@H]1c1cc(O)c(O)c(O)c1)c1cc(O)c(O)c(O)c1 [EPIGALOCATECHIN GALLATE],> 100,32.2%,19.2%,–
Cc1ccc(-n2cc(C(=O)Nc3cc(F)cc(F)c3)c(=O)c3ccc(N(C)C)nc32)cc1OCCCCCCC[N+]1(C)CCCC1,–,55.9%,12.7%,–
CN(C)c1ccc2c(=O)c(C(=O)Nc3cc(F)cc(F)c3)cn(-c3ccc(Cl)c(OCCCCCCC[N+]4(C)CCCC4)c3)c2n1,54.5,76.1%,51%,–
Cc1cc(OCCCCCCC[N+](C)(C)C2CCCCC2)cc(-n2cc(C(=O)Nc3cc(F)cc(F)c3)c(=O)c3ccc(N(C)C)nc32)c1,61.8,89.1%,52.5%,–
CC[N+]1(CCCCCCCOc2cc(-n3cc(C(=O)Nc4cc(F)cc(F)c4)c(=O)c4ccc(N(C)C)nc43)ccc2Cl)CCCCC1,–,inactive,inactive,–
CC[N+]1(CCCCCCCOc2ccc(-n3cc(C(=O)Nc4cc(F)cc(F)c4)c(=O)c4ccc(N(C)C)nc43)c(F)c2)CCCC1,< 20,inactive,inactive,–
CN(C)c1ccc2c(=O)c(C(=O)Nc3cc(F)cc(F)c3)cn(-c3ccc(Cl)c(OCCCCCCC[N+](C)(C)C4CCCCC4)c3)c2n1,> 100,81.4%,37.6%,40.2
Cc1ccc(-n2cc(C(=O)Nc3cc(F)cc(F)c3)c(=O)c3ccc(N(C)C)nc32)cc1OCCCCCCC[N+]1(C)CCCCC1,–,45.1%,23.4%,–
CN(C)c1ccc2c(=O)c(C(=O)Nc3cc(F)cc(F)c3)cn(-c3ccc(Cl)c(OCCCCCCC[N+]45CCN(CC4)CC5)c3)c2n1,–,18.7%,8.08%,–
Cc1cc(OCCCCCCC[N+]2(C)CCN(C)CC2)ccc1-n1cc(C(=O)Nc2cc(F)cc(F)c2)c(=O)c2ccc(N(C)C)nc21,< 20,inactive,inactive,–
Cc1cc(OCCCCCCC[N+]2(C)CCCCC2)ccc1-n1cc(C(=O)Nc2cc(F)cc(F)c2)c(=O)c2ccc(N(C)C)nc21,< 20,inactive,inactive,–
CC[N+]1(CCCCCCCOc2cc(C)cc(-n3cc(C(=O)Nc4cc(F)cc(F)c4)c(=O)c4ccc(N(C)C)nc43)c2)CCCC1,–,73.2%,35.1%,–
CN(C)c1ccc2c(=O)c(C(=O)Nc3cc(F)cc(F)c3)cn(-c3ccc(OCCCCCCC[N+]45CCN(CC4)CC5)cc3F)c2n1,–,42.4%,9.02%,–
Cc1cc(OCCCCCCC[n+]2ccccc2)ccc1-n1cc(C(=O)Nc2cc(F)cc(F)c2)c(=O)c2ccc(N(C)C)nc21,–,inactive,inactive,–
CC[N+]1(CCCCCCCOc2ccc(-n3cc(C(=O)Nc4cc(F)cc(F)c4)c(=O)c4ccc(N(C)C)nc43)c(F)c2)CCCCC1,< 20,inactive,inactive,–
Cc1ccc(-n2cc(C(=O)Nc3cc(F)cc(F)c3)c(=O)c3ccc(N(C)C)nc32)cc1OCCCCCCC[N+](C)(C)C1CCCCC1,–,61.7%,32.3%,–
CC[N+]1(CCCCCCCOc2ccc(-n3cc(C(=O)Nc4cc(F)cc(F)c4)c(=O)c4ccc(N(C)C)nc43)c(Cl)c2)CCCC1,< 20,inactive,inactive,–
